Each structure is given as a SMILES string.

The data set in a line: physchem.
Description: Dissociation constant, pKa of the compound by UV spectrophotometric analysis
As for `CCCCCCCS(=O)(=O)Nc1ccc(Nc2c3ccccc3nc3c(C(N)=O)cccc23)c(OC)c1`, the pKa (in general, the negative logarithm of the acid dissociation constant) was found to be 6.33.
The result for `COc1cc(NS(C)(=O)=O)ccc1Nc1c2ccccc2nc2cc(OCC(O)CO)ccc12` (stereo unspecified) reads 7; that for `CCS(=O)(=O)Nc1ccc(Nc2c3ccccc3nc3ncccc23)c(OC)c1`, 6.07; that for `CNC(=O)c1cccc2c(Nc3ccc(NS(C)(=O)=O)cc3OC)c3ccccc3nc12`, 6.36.
As to `CCCS(=O)(=O)Nc1ccc(Nc2c3ccccc3nc3cc(OC)ccc23)c(OC)c1`, the pKa is 7.38.
For the compound `COc1cc(NS(C)(=O)=O)ccc1Nc1c2ccccc2nc2cc(NC(C)=O)ccc12`, the pKa was 7.56.
`NC(=O)CCCc1ccc(Nc2c3ccccc3nc3ccccc23)cc1` showed a pKa of 7.67.
`CCS(=O)(=O)Nc1ccc(Nc2c3ccccc3nc3cc(NC(C)=O)ccc23)cc1`: the pKa is 7.35.
For `CCCCCS(=O)(=O)Nc1ccc(Nc2c3ccccc3nc3c(C(=O)NCCCC)cccc23)c(OC)c1`, the pKa stood at 6.36.
Take `CCCCCS(=O)(=O)Nc1ccc(Nc2c3ccccc3nc3cc(NC(C)=O)ccc23)cc1`: the pKa stood at 7.35.
The value for `CCCCS(=O)(=O)Nc1ccc(Nc2c3ccccc3nc3c(C(N)=O)cccc23)c(OC)c1` was 6.34.
The result for `CCCCCCS(=O)(=O)Nc1ccc(Nc2c3ccccc3nc3cc([N+](=O)[O-])ccc23)c(OC)c1` reads 5.7.
`CCCOc1ccc2c(Nc3ccc(NS(C)(=O)=O)cc3OC)c3ccccc3nc2c1` gave a pKa of 7.36.
The result for `CCS(=O)(=O)Nc1ccc(Nc2c3ccccc3nc3cc(NC(C)=O)ccc23)c(OC)c1` reads 7.54; that for `CCCCS(=O)(=O)Nc1ccc(Nc2c3ccccc3nc3ccccc23)c(OC)c1`, 7.41; that for `CCCCCCCS(=O)(=O)Nc1ccc(Nc2c3ccccc3nc3cc([N+](=O)[O-])ccc23)c(OC)c1`, 5.69.
The result for `NC(=O)CCCCCCc1ccc(Nc2c3ccccc3nc3ccccc23)cc1` reads 7.7; that for `CCCCCS(=O)(=O)Nc1ccc(Nc2c3ccccc3nc3ncccc23)c(OC)c1`, 6.05.
In turn, `CCCS(=O)(=O)Nc1ccc(Nc2c3ccccc3nc3cc(NC(C)=O)ccc23)cc1` yielded a pKa of 7.33.
`CCS(=O)(=O)Nc1ccc(Nc2c3ccccc3nc3cc(OC)ccc23)c(OC)c1` had a pKa of 7.36.
The result for `CNC(=O)CNC(=O)c1cccc2c(Nc3ccc(NS(C)(=O)=O)cc3OC)c3ccccc3nc12` reads 6.2; that for `CCCCCCS(=O)(=O)Nc1ccc(Nc2c3ccccc3nc3ccccc23)c(OC)c1`, 7.42; that for `CCCCCS(=O)(=O)Nc1ccc(Nc2c3ccccc3nc3cc([N+](=O)[O-])ccc23)c(OC)c1`, 5.69.
The value for `COc1cc(NS(C)(=O)=O)ccc1Nc1c2ccccc2nc2ncccc12` was 6.09; that for `CCCCCCS(=O)(=O)Nc1ccc(Nc2c3ccccc3nc3ccccc23)cc1` was 7.17; that for `CCCCS(=O)(=O)Nc1ccc(Nc2c3ccccc3nc3ncccc23)c(OC)c1` was 6.06.
The result for `CCCS(=O)(=O)Nc1ccc(Nc2c3ccccc3nc3cc([N+](=O)[O-])ccc23)c(OC)c1` reads 5.69; that for `CCCCCCS(=O)(=O)Nc1ccc(Nc2c3ccccc3nc3c(C(N)=O)cccc23)c(OC)c1`, 6.33; that for `CCOc1ccc2c(Nc3ccc(NS(C)(=O)=O)cc3OC)c3ccccc3nc2c1`, 7.37.
`NC(=O)CCCCCc1ccc(Nc2c3ccccc3nc3ccccc23)cc1` yielded a pKa of 7.7.
Compound `CCCCCCS(=O)(=O)Nc1ccc(Nc2c3ccccc3nc3cc(NC(C)=O)ccc23)cc1` had a pKa of 7.34.
The compound `CCCCS(=O)(=O)Nc1ccc(Nc2c3ccccc3nc3cc(NC(C)=O)ccc23)c(OC)c1` displayed a pKa of 7.56.
The value for `CCS(=O)(=O)Nc1ccc(Nc2c3ccccc3nc3ccccc23)cc1` was 7.19; that for `CCCCCS(=O)(=O)Nc1ccc(Nc2c3ccccc3nc3ccccc23)cc1` was 7.19.
The compound `CCCS(=O)(=O)Nc1ccc(Nc2c3ccccc3nc3ccccc23)cc1` returned a pKa of 7.2.
The result for `CCCCS(=O)(=O)Nc1ccc(Nc2c3ccccc3nc3ccccc23)cc1` reads 7.18; that for `CCCS(=O)(=O)Nc1ccc(Nc2c3ccccc3nc3ncccc23)c(OC)c1`, 6.04; that for `CCCCCS(=O)(=O)Nc1ccc(Nc2c3ccccc3nc3ccccc23)c(OC)c1`, 7.39.
The result for `CCCCCCS(=O)(=O)Nc1ccc(Nc2c3ccccc3nc3cc(NC(C)=O)ccc23)c(OC)c1` reads 7.54.
The result for `NC(=O)CCCCCCCc1ccc(Nc2c3ccccc3nc3ccccc23)cc1` reads 7.7; that for `NC(=O)CCCCCCCCc1ccc(Nc2c3ccccc3nc3ccccc23)cc1`, 7.7.
As for `COc1cc(NS(C)(=O)=O)ccc1Nc1c2ccccc2nc2ccccc12`, the pKa amounted to 7.34.
The compound `COc1cc(NS(C)(=O)=O)ccc1Nc1c2ccccc2nc2c(C(=O)N(C)C)cccc12` registered a pKa of 6.16.
The value for `CCCCCS(=O)(=O)Nc1ccc(Nc2c3ccccc3nc3c(C(N)=O)cccc23)c(OC)c1` was 6.36; that for `CCCCCCCS(=O)(=O)Nc1ccc(Nc2c3ccccc3nc3ccccc23)c(OC)c1` was 7.42; that for `CCCCNC(=O)c1cccc2c(Nc3ccc(NS(C)(=O)=O)cc3OC)c3ccccc3nc12` was 6.36.
The compound `CCCCCCS(=O)(=O)Nc1ccc(Nc2c3ccccc3nc3ncccc23)c(OC)c1` came in with a pKa of 6.03.
The value for `CCCCS(=O)(=O)Nc1ccc(Nc2c3ccccc3nc3cc([N+](=O)[O-])ccc23)c(OC)c1` was 5.71; that for `CCCS(=O)(=O)Nc1ccc(Nc2c3ccccc3nc3cc(NC(C)=O)ccc23)c(OC)c1` was 7.57; that for `NC(=O)CCCCc1ccc(Nc2c3ccccc3nc3ccccc23)cc1` was 7.7.
`CCS(=O)(=O)Nc1ccc(Nc2c3ccccc3nc3cc([N+](=O)[O-])ccc23)c(OC)c1` gave a pKa of 5.7.
The result for `CCCCCCCCS(=O)(=O)Nc1ccc(Nc2c3ccccc3nc3ccccc23)c(OC)c1` reads 7.44; that for `CCCCCS(=O)(=O)Nc1ccc(Nc2c3ccccc3nc3cc(NC(C)=O)ccc23)c(OC)c1`, 7.54.
On to `CCCS(=O)(=O)Nc1ccc(Nc2c3ccccc3nc3c(C(N)=O)cccc23)c(OC)c1`, for which the pKa was 6.35.
The value for `CCCCS(=O)(=O)Nc1ccc(Nc2c3ccccc3nc3cc(NC(C)=O)ccc23)cc1` was 7.32.
Regarding `CCCCCCCS(=O)(=O)Nc1ccc(Nc2c3ccccc3nc3cc(NC(C)=O)ccc23)c(OC)c1`, the pKa was determined as 7.55.
The value for `COc1cc(NS(C)(=O)=O)ccc1Nc1c2ccccc2nc2cc([N+](=O)[O-])ccc12` was 5.72.
The value for `CCCCCCCS(=O)(=O)Nc1ccc(Nc2c3ccccc3nc3ncccc23)c(OC)c1` was 6.04.
The compound `CCS(=O)(=O)Nc1ccc(Nc2c3ccccc3nc3ccccc23)c(OC)c1` yielded a pKa of 7.4.
The value for `CCCCNC(=O)c1cccc2c(Nc3ccc(NS(=O)(=O)CCC)cc3OC)c3ccccc3nc12` was 6.35.
Regarding `CCCCOc1ccc2c(Nc3ccc(NS(C)(=O)=O)cc3OC)c3ccccc3nc2c1`, the pKa is 7.34.
The value for `CCCCS(=O)(=O)Nc1ccc(Nc2c3ccccc3nc3cc(OC)ccc23)c(OC)c1` was 7.35.
`COc1cc(NS(C)(=O)=O)ccc1Nc1c2ccccc2nc2c(C(N)=O)cccc12` displayed a pKa of 6.37.
The result for `COc1cc(NS(C)(=O)=O)ccc1Nc1c2ccccc2nc2c(C(=O)NCC(N)=O)cccc12` reads 6.18; that for `COc1cc(NS(C)(=O)=O)ccc1Nc1c2ccccc2nc2cc(OCCCC(N)=O)ccc12`, 7.36.
Compound `CCS(=O)(=O)Nc1ccc(Nc2c3ccccc3nc3c(C(N)=O)cccc23)c(OC)c1` showed a pKa of 6.35.
With `CCCS(=O)(=O)Nc1ccc(Nc2c3ccccc3nc3ccccc23)c(OC)c1`, the pKa was found to be 7.41.
`COc1cc(NS(C)(=O)=O)ccc1Nc1c2ccccc2nc2cc(OCCO)ccc12` had a pKa of 7.36.
The result for `COc1cc(NS(C)(=O)=O)ccc1Nc1c2ccccc2nc2c(C(=O)NCC(O)CO)cccc12` (stereo unspecified) reads 6.34; that for `COc1ccc2c(Nc3ccc(NS(C)(=O)=O)cc3OC)c3ccccc3nc2c1`, 7.39.
The value for `CNC(=O)COc1ccc2c(Nc3ccc(NS(C)(=O)=O)cc3OC)c3ccccc3nc2c1` was 7.35.

The values above are taken from ChEMBL document CHEMBL3244417, “Potential antitumor agents. 32. Role of agent base strength in the quantitative structure--antitumor relationships for 4'-(9-acridinylamino)methanesulfonanilide analogues” (J Med Chem, 1979).
